Laboratory results taken from paper PMC9455805, “Preparation, Characterization and In Vitro Stability of a Novel ACE-Inhibitory Peptide from Soybean Protein” (Foods, 2022).
“Also recorded” adds a separate entry of the source. Read-outs that look alike come from different tables or passages of the source. Peptide text beside a SMILES is read from it.

Tests used:
ACE = system: ACE; design: method as in 5 sources, ref 34 = [34]; PMID 12843654; doi:10.1271/bbb.67.1278; 34. Kuba M. Tanaka K. Tawata S. Takeda Y. Yasuda M. Angiotensin I-converting enzyme inhibitory peptides isolated from tofuyo fermented soybean food Biosci. Biotechnol. Biochem. 2003 67 1278 1283 10.12 ||| ref 33 = [33]; PMID 25410725; doi:10.1002/bab.1321; 33. Sornwatana T. Bangphoomi K. Roytrakul S. Wetprasit N. Choowongkomon K. Ratanapo S. Chebulin: Terminalia chebula Retz. fruit-derived peptide with angiotensin-I–converting enzyme inhibitory activity ||| ref 35 = [35]; doi:10.1016/j.foodchem.2010.05.026; 35. Jiang Z. Tian B. Brodcrob A. Huo G. Production, analysis and in vivo evaluation of novel angiotensin-I-converting enzyme inhibitory peptides from bovine casein Food Chem. 2010 123 779 786 10.1016/ ||| ref 7 = [7]; doi:10.1016/j.foodchem.2009.04.086; 7. Lee S.H. Qian Z.J. Kim S.K. A novel angiotensin I converting enzyme inhibitory peptide from tuna frame protein hydrolysate and its antihypertensive effect in spontaneously hypertensive rats Food Ch ||| ref 36 = [36]; PMID 23140680; doi:10.1016/j.foodchem.2011.01.010; 36. Jang J.H. Jeong S.C. Kim J.H. Lee Y.H. Ju Y.C. Lee J.S. Characterisation of a new antihypertensive angiotensin I-converting enzyme inhibitory peptide from Pleurotus cornucopiae Food Chem. 2011 127; settings: cited from earlier work; for IC50: read-out: IC50 (ACE, non-competitive peptide)
pepsin and pancreatin = assay: In vitro simulated gastrointestinal digestion, then ACE-inhibitory activity assay and ESI-MS; format: in vitro ADME
Method: Pepsin (1 mg) was added, and the mixture was stirred at 37 °C for 2 h. Then, the pH was adjusted to 6 with 0.9 M NaHCO3, and afterwards to 7.5 with 1 M NaOH. Pancreatin (1 mg) was added, and the solution was incubated at 37 °C for 4 h.

[1] = from Pleurotus cornucopiae mushroom

DERF
IC50 (ACE, non-competitive peptide) (ACE; from bovine casein hydrolysate): 21 µg/mL

N=C(N)NCCC[C@H](NC(=O)[C@H](CC(=O)O)NC(=O)[C@@H](N)CC(N)=O)C(=O)N1CCC[C@H]1C(=O)O [NDRP] (H-NDRP-OH)
maximal ACE inhibition of the in vitro-digested sample (pepsin and pancreatin; 10 mg mL−1 in H2O, pepsin, pH 2, 37 °C, 2 h, then pancreatin, pH 7.5, 37 °C, 4 h, enzymes deactivated in boiling water bath 10 min, freeze-dried, read-out ACE assay): 82.47 ± 1.07% | residual ACE-inhibitory activity of the digested sample relative to pure peptide (pepsin and pancreatin; after pepsin (pH 2, 2 h) and pancreatin (pH 7.5, 4 h) at 37 °C, ratio of maximal ACE inhibition, digested vs pure NDRP): 94% | stability toward in vitro simulated gastrointestinal digestion (in words) (pepsin and pancreatin; pepsin (pH 2, 2 h) then pancreatin (pH 7.5, 4 h), 37 °C, ACE assay and ESI-MS (peak of intact peptide observed)): stable towards gastrointestinal simulated digestion; also recorded: might be resistant to gastrointestinal digestion; also recorded: highly stable

RYPSYG
IC50 (ACE, non-competitive peptide) (ACE; from bovine casein hydrolysate): 54 µg/mL

DENSKF
IC50 (ACE; from fruits of T. chebula Retz.): 100 µM

RLPSEFDLSAFLRA
IC50 (ACE, non-competitive peptide) (ACE; [1]): 450 µg/mL

GDLGKTTTVSNWSPPKYKDTP
IC50 (ACE; from tuna frame protein hydrolysate): 11.3 µM

RLSGQTIEVTSEYLFRH
IC50 (ACE, non-competitive peptide) (ACE; [1]): 1100 µg/mL
